In patent US9999222B2, “Herbicidal combination comprising azines” (BASF SE, priority 2014, dated 2018):
Values joined by “and” are separate entries in the source; they are usually repeats but may differ in a detail not shown here. Equal entries are not always repeated. Where two headings read alike, the source gives them in different places.

Key:
Assay in all cases: Greenhouse test, pre-emergence treatment
[1] = tested on: ABUTH; type: in vivo, Abutilon theophrasti; conditions: Abutilon theophrasti, 480 h, 24 g ai/ha, read-out: observed % activity 20 DAT
Summary of the method: (§1)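 Seeds were sown in loamy sand with approximately 3.0% humus, then sprayed at once with actives suspended or emulsified in water. Pots were watered, hooded until rooting, held at 10-25° C. or 20-35° C. by species for 2 to 4 weeks, and scored 0 (no damage) to 100 (no emergence/complete destruction).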

[2] = tested on: ALOMY; type: in vivo, Alopecurus myosuroides; conditions: Alopecurus myosuroides, pre-emergence, 480 h; for inhibition at 12.5 g/ha: use rate 12.5 g ai/ha; for inhibition at 25 g/ha: use rate 25 g ai/ha
Summary of the method: as §1

[3] = tested on: ECHCG; type: in vivo, Echinocloa crus-galli; conditions: Echinochloa crus-galli, 480 h, read-out: observed % activity 20 DAT; for inhibition at 12.5 g/ha: use rate 12.5 g ai/ha
Summary of the method: as §1

[4] = tested on: POLCO; type: in vivo, Polygonum convolvulus; conditions: Fallopia convolvulus, 480 h, pre-emergence; for inhibition at 12.5 g/ha: use rate 12.5 g ai/ha
Summary of the method: as §1

[5] = tested on: SETFA; type: in vivo, Setaria faberi; conditions: Setaria faberi, 480 h, SETFA, 20 DAT, read-out: observed % activity 20 DAT
Summary of the method: as §1

[6] = tested on: AVEFA; type: in vivo, Avena fatua; conditions: pre-emergence
Summary of the method: as §1

[7] = tested on: BRADC; type: in vivo, Brachiaria decumbens; conditions: pre-emergence
Summary of the method: as §1

[8] = tested on: COMBE; type: in vivo, Commelina benghalensis; conditions: Commelina benghalensis, 480 h; pre-emergence, 12 g ai/ha; read-out: observed % activity 20 DAT
Summary of the method: as §1

[9] = tested on: EPHHL; type: in vivo, Euphorbia heterophylla; conditions: Euphorbia heterophylla, pre-emergence, 480 h, pre-emergence, read-out: observed % activity 20 DAT
Summary of the method: as §1

[10] = tested on: GALAP; type: in vivo, Galium aparine; conditions: Galium aparine, 480 h, pre-emergence
Summary of the method: as §1

[11] = tested on: GERPU; type: in vivo, Geranium pusillum; conditions: Geranium pusillum, pre-emergence, 480 h, pre-emergence, read-out: observed % activity 20 DAT
Summary of the method: as §1

[12] = tested on: KCHSC; type: in vivo, Kochia scoparia; conditions: Bassia scoparia, 480 h, pre-emergence
Summary of the method: as §1

[13] = tested on: LOLMU; type: in vivo, Lolium multiflorum; conditions: Lolium multiflorum, pre-emergence, 480 h; for inhibition at 12.5 g/ha: use rate 12.5 g ai/ha; for inhibition at 25 g/ha: use rate 25 g ai/ha
Summary of the method: as §1

[14] = tested on: PHACA; type: in vivo, Phalaris canariensis; conditions: Phalaris canariensis, pre-emergence, 480 h; for inhibition at 12.5 g/ha: use rate 12.5 g ai/ha; for inhibition at 25 g/ha: use rate 25 g ai/ha
Summary of the method: as §1

[15] = tested on: SIDRH; type: in vivo, Sida rhombifolia; conditions: pre-emergence
Summary of the method: as §1

[16] = 12 g ai/ha, 20 DAT, read-out: observed % activity
[17] = 24 g ai/ha, 20 DAT, read-out: observed % activity
[18] = 6 g ai/ha, read-out: observed % activity 20 DAT
[19] = 12 g ai/ha, read-out: observed % activity 20 DAT
[20] = 24 g ai/ha, read-out: observed % activity 20 DAT
[21] = ALOMY, 20 DAT, read-out: observed % activity 20 DAT
[22] = read-out: observed % activity 20 DAT
[23] = 6 g ai/ha, 20 DAT, read-out: observed % activity
[24] = 8 g ai/ha, read-out: observed % activity 20 DAT
[25] = LOLMU, 20 DAT, read-out: observed % activity 20 DAT
[26] = PHACA, 20 DAT, read-out: observed % activity 20 DAT

In the case of `Cn1nc(C(F)(F)F)c(CS(=O)(=O)C2=NOC(C)(C)C2)c1OC(F)F` [Pyroxasulfone, pyroxasulfone], the pest or weed control at 24 g/ha [1] is reported as 40%, the inhibition at 12 g/ha [2, 16] is reported as 95% and the inhibition at 24 g/ha [2, 17] is reported as 98%. It also gave a pest or weed control at 6 g/ha [2, 18] of 80%, a pest or weed control at 12 g/ha [2, 19] of 95% and a pest or weed control at 24 g/ha [2, 20] of 98%. The inhibition at 12.5 g/ha [2, 21] was 20%, the inhibition at 25 g/ha [2, 21] was 20% and the inhibition at 12.5 g/ha [2, 22] was 20%. The inhibition at 25 g/ha [2, 22] was 20%, the pest or weed control at 8 g/ha ([3]; 8 g ai/ha) was 70% and the inhibition at 12.5 g/ha ([3]; ECHCG, 20 DAT) was 50%. The inhibition at 25 g/ha ([3]; ECHCG, use rate 25 g ai/ha, 20 DAT) was 90%, the inhibition at 12.5 g/ha [3] was 50% and the pest or weed control at 12 g/ha [4, 19] was 20%. The pest or weed control at 24 g/ha [4, 20] was 20%, the inhibition at 12 g/ha [4, 16] was 0% and the inhibition at 12.5 g/ha ([4]; POLCO, 20 DAT, read-out: observed % activity 20 DAT) was 0%. The inhibition at 12.5 g/ha [4, 22] was 0%, the inhibition at 12.5 g/ha ([5]; use rate 12.5 g ai/ha) was 80% and the inhibition at 25 g/ha ([5]; use rate 25 g ai/ha) was 95%. For the same compound, the inhibition at 6 g/ha ([6]; Avena fatua, 480 h, 6 g ai/ha, 20 DAT, read-out: observed % activity) was 0%, the inhibition at 24 g/ha ([6]; Avena fatua, 480 h, 24 g ai/ha, 20 DAT, read-out: observed % activity) was 60% and the “observed % activity 20 DAT” value ([6]; 8 g ai/ha) was 40%. For the same compound, the “observed % activity 20 DAT” value ([6]; 12 g ai/ha) was 20% and 30%, the “observed % activity 20 DAT” value ([6]; 16 g ai/ha) was 60% and 35% and the “observed % activity 20 DAT” value ([6]; 24 g ai/ha) was 70%. For the same compound, the inhibition at 6 g/ha ([7]; Urochloa decumbens, 480 h, 6 g ai/ha, 20 DAT, read-out: observed % activity) was 53%, the pest or weed control at 6 g/ha ([7]; Urochloa decumbens, 480 h, 6 g ai/ha, read-out: observed % activity 20 DAT) was 35% and the pest or weed control at 12 g/ha ([7]; Urochloa decumbens, 480 h, 12 g ai/ha, read-out: observed % activity 20 DAT) was 30%. For the same compound, the pest or weed control at 16 g/ha ([7]; Urochloa decumbens, 480 h, 16 g ai/ha, read-out: observed % activity 20 DAT) was 55%, the pest or weed control at 24 g/ha ([7]; Urochloa decumbens, 480 h, 24 g ai/ha, read-out: observed % activity 20 DAT) was 95% and the “observed % activity 20 DAT” value ([7]; 12 g ai/ha) was 30%. For the same compound, the pest or weed control at 12 g/ha [8] was 90%, the pest or weed control at 12 g/ha ([9]; 12 g ai/ha) was 40% and the pest or weed control at 24 g/ha ([9]; 24 g ai/ha) was 70%. For the same compound, the pest or weed control at 12 g/ha [10, 19] was 35%, the pest or weed control at 24 g/ha [10, 20] was 50% and the inhibition at 12 g/ha [10, 16] was 75%. For the same compound, the inhibition at 24 g/ha [10, 17] was 75%, the pest or weed control at 12 g/ha ([11]; 12 g ai/ha) was 10% and the pest or weed control at 24 g/ha ([11]; 24 g ai/ha) was 20%. It also gave a pest or weed control at 12 g/ha [12, 19] of 50%, a pest or weed control at 24 g/ha [12, 20] of 80% and an inhibition at 6 g/ha [12, 23] of 0%. For the same compound, the inhibition at 12 g/ha [12, 16] was 85%, the inhibition at 25 g/ha ([12]; use rate 25 g ai/ha, read-out: observed % activity 20 DAT) was 0% and the inhibition at 6 g/ha [13, 23] was 35%. The inhibition at 24 g/ha [13, 17] was 98%, the pest or weed control at 6 g/ha [13, 18] was 70% and the pest or weed control at 8 g/ha [13, 24] was 50%. The pest or weed control at 12 g/ha [13, 19] was 80%, the pest or weed control at 24 g/ha [13, 20] was 95% and the inhibition at 12.5 g/ha [13, 25] was 30%. For the same compound, the inhibition at 25 g/ha [13, 25] was 40%, the inhibition at 12.5 g/ha [13, 22] was 30% and the inhibition at 25 g/ha [13, 22] was 40%. For the same compound, the inhibition at 6 g/ha [14, 23] was 80%, the inhibition at 24 g/ha [14, 17] was 95% and the pest or weed control at 6 g/ha [14, 18] was 70%. The pest or weed control at 8 g/ha [14, 24] was 70%, the pest or weed control at 12 g/ha [14, 19] was 75% and the pest or weed control at 16 g/ha ([14]; 16 g ai/ha, read-out: observed % activity 20 DAT) was 75%. It also gave a pest or weed control at 24 g/ha [14, 20] of 95%, an inhibition at 12.5 g/ha [14, 26] of 40% and an inhibition at 25 g/ha [14, 26] of 55%. For the same compound, the inhibition at 12.5 g/ha [14, 22] was 40%, the inhibition at 25 g/ha [14, 22] was 55% and the pest or weed control at 12 g/ha ([15]; Sida rhombifolia, 480 h, 12 g ai/ha, read-out: observed % activity 20 DAT) was 45%. For the same compound, the pest or weed control at 24 g/ha ([15]; Sida rhombifolia, 480 h, 24 g ai/ha, read-out: observed % activity 20 DAT) was 95% and the “observed % activity 20 DAT” value ([15]; 12 g ai/ha) was 45%.
